Holding throughout (type): cell-based, Periplaneta americana
The test system of assay [1] is cockroach Dorsal Unpaired Median (DUM) neurons. To be noted: for origin of the intracellular calcium rise: with caffeine, omega-conotoxin, pirenzepine. Background: A change in cytosolic calcium serves as a functional read-out for many receptors and channels.
The test system is the same in assay [2]. The assay can be described thus: Whole-cell patch-clamp, current-clamp: DUM neuron spontaneous electrical activity. The following applies: 10^-8 M. The method, then: (§1) Experiments were carried out on cockroach Dorsal Unpaired Median (DUM) neurons. Cockroach neuronal preparations are commonly used as biomedical models for vertebrates and invertebrates and DUM neurons are, furthermore, electrophysiologically and pharmacologically well characterized since most of the biophysical and pharmacological properties of ionic currents and receptors underlying and modulating their spontaneous action potentials have been established by using the well-known patch-clamp technique.
(§2) Adult male cockroaches, Periplaneta americana (see FIG. 1), are taken from our laboratory colonies, which are maintained under standard conditions (29° C., photoperiod of 12 h light/12 h dark). Animals are immobilized dorsal-side up on a dissection dish. The dorsal cuticle, gut and some dorso-longitudinal muscles are removed to allow access to the ventral nerve cord. The abdominal nerve cord and its terminal abdominal ganglion (TAG), carefully dissected under a binocular microscope, are placed in normal saline. Animal care and handling procedures are in accordance with French institutional and national health guidelines. […]
(§3) Electrical activity and neonicotinoïd-induced inward currents are recorded using the patch clamp technique in the whole-cell recording configuration under current-clamp and voltage-clamp mode, respectively. […] Signals are recorded with an Axopatch 200A amplifier. […]

Assay [3] has the same test system. The assay can be described thus: Whole-cell patch-clamp, voltage-clamp: thiamethoxam-induced inward current in DUM neurons. The following applies: holding potential -50 mV. Here is the method:
as §1, §2, §3
On the technique in general: Patch clamp records ionic current or voltage across a cell membrane.

Assay [4] has the same test system. In words: Voltage-clamp thiamethoxam-induced current in DUM neurons after pretreatment with acetylcholine. The method, then: Electrical activity and neonicotinoïd-induced inward currents are recorded using the patch clamp technique in the whole-cell recording configuration under current-clamp and voltage-clamp mode, respectively. Patch-clamp electrodes are pulled from borosilicate glass capillary tubes (GC150T-10) using a P-97 model puller. Patch pipettes have resistances ranging from 1 to 1.2 MΩ when filled with internal pipette solution. The liquid junction potential between extracellular and intracellular solutions is always corrected before the formation of a giga Ohm seal (>3GΩ). Signals are recorded with an Axopatch 200A amplifier. […] Under voltage-clamp conditions, DUM neuron somata are voltage-clamped at a steady state holding potential of −50 mV to measure the effects of thiamethoxam applied alone and after pretreatment with IR3535® (10^−8 M). Experiments are carried out at room temperature.
Acetylcholine at a concentration of 10^−3M has been applied to DUM neurons during one second, three minutes before testing thiamethoxam at 10^−7M, 10^−6M and 10^−5M on DUM neurons under the same protocol as example 3.

Like-named read-outs stand apart in the source and are kept apart here.

As for `CCCCN(CCC(=O)OCC)C(C)=O` [IR3535®, 3-[N-Butyl-N-acetyl]-aminopropionic acid, ethyl ester], the “lower concentration which produces a significant elevation of intracellular calcium concentration” value in assay [1] (DUM neurons) is listed as 10^−8 M. The “concentration at which the zone I intracellular calcium increase reaches a maximum” value in assay [1] (DUM neurons, zone I) is 10^−8 M. Moreover, the “concentration producing the maximum effect on intracellular calcium (zone III)” value in assay [1] (DUM neurons, zone III) is reported as 3.10^−5 M. Further, the “origin of the intracellular calcium rise” value is “results from extracellular calcium through plasma membrane voltage-dependent calcium channels via M1/M3 mAChR sub-type modulation” in assay [1] (IR3535 at 10^-8 M); “both extracellular calcium and calcium released from internal stores are involved” in assay [1] (higher concentrations of IR3535 (10^-5 M)). The “effect on membrane potential and spontaneous action potential discharge frequency” value in assay [2] is listed as “induces a significant membrane depolarization associated with an increase of the spontaneous action potential discharge frequency”.
Regarding `CCN(CC)C(=O)c1cccc(C)c1` [DEET, N,N-diethyl-3-methylbenzamide], the “effect on intracellular calcium concentration” value in assay [1] (DEET at concentrations higher than 10^-7 M) is “an important decrease of the intracellular calcium concentration”. The “ratio of emitted fluorescence (340 nm/380 nm)” value in assay [1] (DEET between 3.10-8 M and 3.10-7 M) is “above 0.6”. Further, the “concentration at which the intracellular calcium elevation reaches a maximum” value in assay [1] (DEET, DUM neurons) is on record as 10^−7 M. For the same compound, in assay [1] (DEET, maximum at 10^-7 M), the “maximum value of ratio of emitted fluorescence (340 nm/380 nm)” value is recorded as 0.7.
Take `CN1COCN(Cc2cnc(Cl)s2)/C1=N\[N+](=O)[O-]` [thiamethoxam]: the “mean inward current amplitude relative to thiamethoxam applied alone” value in assay [3] (thiamethoxam 10^-6 M after pretreatment with IR3535 10^-8 M) is listed as “about 6 fold”. In addition, in assay [3] (thiamethoxam 10^-6 M alone, n=3-4), the “induced inward current amplitude” value is recorded as “induces an inward current with small amplitudes”. The “current amplitude, rank among tested concentrations” value is “lowest value” in assay [4] (thiamethoxam 10^-6 M after acetylcholine 10^-3 M) and “highest value” in assay [4] (thiamethoxam 10^-7 M after acetylcholine 10^-3 M). The induced current entry in assay [4] (thiamethoxam 10^-7, 10^-6, 10^-5 M after acetylcholine 10^-3 M (1 s, 3 min before)) is on record as “induces a current”; in assay [4] (thiamethoxam alone, no acetylcholine pretreatment) it was “no current has been recorded”.

Source of the values: patent US10390532B2, “Insecticide composition including thiamethoxam and a synergistic agent” (priority 2015, dated 2019).
